Measured values: the NIST ThermoML archive (doi:10.1016/j.jct.2016.06.034)

Assay: mn = molality of the nth substance listed, in mol/kg
Conditions: for mass density / electrical conductivity / speed of sound: 84.5 kPa, Liquid; for mass density: Vibrating tube method; for surface tension liquid-gas: platinum plate method; for electrical conductivity: Alternating current cell with electrodes; for speed of sound: Frequency=3 MHz, Sing-around technique in a fixed-path interferometer

CCCCCCCCCCn1cc[n+](C)c1.[Br-] [1-decyl-3-methylimidazolium bromide] + O
Conditions | electrical conductivity [S/m] | mass density [kg/m3] | speed of sound [m/s] | surface tension liquid-gas [mN/m]
303.15 K, m1 = 0.0095 | – | 996.005 | – | –
303.15 K, m1 = 0.01379 | – | 996.169 | – | –
303.15 K, m1 = 0.01652 | – | 996.273 | – | –
303.15 K, m1 = 0.02179 | – | 996.475 | – | –
303.15 K, m1 = 0.02615 | – | 996.639 | – | –
303.15 K, m1 = 0.03106 | – | 996.825 | – | –
303.15 K, m1 = 0.03338 | – | 996.912 | – | –
303.15 K, m1 = 0.03819 | – | 997.092 | – | –
303.15 K, m1 = 0.0406 | – | 997.186 | – | –
303.15 K, m1 = 0.04332 | – | 997.276 | – | –
303.15 K, m1 = 0.04614 | – | 997.377 | – | –
303.15 K, m1 = 0.05515 | – | 997.672 | – | –
303.15 K, m1 = 0.06396 | – | 997.957 | – | –
303.15 K, m1 = 0.07815 | – | 998.413 | – | –
303.15 K, m1 = 0.122 | – | 999.792 | – | –
303.15 K, m1 = 0.1726 | – | 1001.35 | – | –
303.15 K, m1 = 0.2247 | – | 1002.91 | – | –
303.15 K, m1 = 0.2539 | – | 1003.77 | – | –
308.15 K, m1 = 1e-05 | 0.000218 | – | – | –
308.15 K, m1 = 3e-05 | 0.000397 | – | – | –
308.15 K, m1 = 4e-05 | 0.000606 | – | – | –
308.15 K, m1 = 7e-05 | 0.000959 | – | – | –
308.15 K, m1 = 0.0001 | 0.00133 | – | – | –
308.15 K, m1 = 0.00013 | 0.00169 | – | – | –
308.15 K, m1 = 0.00017 | 0.00228 | – | – | –
308.15 K, m1 = 0.00024 | 0.0032 | – | – | –
308.15 K, m1 = 0.00039 | 0.0051 | – | – | –
308.15 K, m1 = 0.00069 | 0.00888 | – | – | –
308.15 K, m1 = 0.00098 | 0.0124 | – | – | –
308.15 K, m1 = 0.0014 | 0.0178 | – | – | –
308.15 K, m1 = 0.00242 | 0.0302 | – | – | –
308.15 K, m1 = 0.00326 | 0.0401 | – | – | –
308.15 K, m1 = 0.00348 | 0.0427 | – | – | –
308.15 K, m1 = 0.0063 | 0.0752 | – | – | –
308.15 K, m1 = 0.00691 | – | – | – | 46.2
308.15 K, m1 = 0.00928 | 0.108 | – | – | –
308.15 K, m1 = 0.0095 | – | 994.377 | 1521.3 | –
308.15 K, m1 = 0.01212 | 0.139 | – | – | –
308.15 K, m1 = 0.01368 | – | – | – | 40.98
308.15 K, m1 = 0.01379 | – | 994.536 | 1522 | –
308.15 K, m1 = 0.01499 | 0.169 | – | – | –
308.15 K, m1 = 0.01652 | – | 994.638 | 1522.4 | –
308.15 K, m1 = 0.01731 | 0.193 | – | – | –
308.15 K, m1 = 0.01851 | – | – | – | 39.3
308.15 K, m1 = 0.02003 | 0.22 | – | – | –
308.15 K, m1 = 0.02179 | – | 994.831 | 1523.2 | –
308.15 K, m1 = 0.02313 | 0.25 | – | – | –
308.15 K, m1 = 0.0251 | – | – | – | 38.12
308.15 K, m1 = 0.02573 | 0.275 | – | – | –
308.15 K, m1 = 0.02615 | – | 994.993 | 1523.7 | –
308.15 K, m1 = 0.0282 | 0.298 | – | – | –
308.15 K, m1 = 0.03065 | 0.321 | – | – | –
308.15 K, m1 = 0.03094 | – | – | – | 37.39
308.15 K, m1 = 0.03106 | – | 995.17 | 1524.4 | –
308.15 K, m1 = 0.03312 | 0.343 | – | – | –
308.15 K, m1 = 0.03338 | – | 995.253 | 1524.7 | –
308.15 K, m1 = 0.03447 | – | – | – | 36.95
308.15 K, m1 = 0.03589 | 0.367 | – | – | –
308.15 K, m1 = 0.03819 | – | 995.428 | 1525.4 | –
308.15 K, m1 = 0.03832 | 0.388 | – | – | –
308.15 K, m1 = 0.04053 | 0.406 | – | – | –
308.15 K, m1 = 0.0406 | – | 995.52 | 1525.5 | –
308.15 K, m1 = 0.04063 | – | – | – | 36.49
308.15 K, m1 = 0.04223 | 0.419 | – | – | –
308.15 K, m1 = 0.04332 | – | 995.61 | 1525.8 | –
308.15 K, m1 = 0.04385 | 0.429 | – | – | –
308.15 K, m1 = 0.04569 | 0.439 | – | – | –
308.15 K, m1 = 0.04614 | – | 995.708 | 1526 | –
308.15 K, m1 = 0.0479 | – | – | – | 36.69
308.15 K, m1 = 0.04793 | 0.449 | – | – | –
308.15 K, m1 = 0.04988 | 0.457 | – | – | –
308.15 K, m1 = 0.05063 | – | – | – | 37.17
308.15 K, m1 = 0.05219 | – | – | – | 37.66
308.15 K, m1 = 0.05236 | 0.466 | – | – | –
308.15 K, m1 = 0.05506 | – | – | – | 37.95
308.15 K, m1 = 0.05515 | – | 995.996 | 1526.1 | –
308.15 K, m1 = 0.05533 | 0.477 | – | – | –
308.15 K, m1 = 0.05718 | 0.483 | – | – | –
308.15 K, m1 = 0.05941 | 0.492 | – | – | –
308.15 K, m1 = 0.06163 | 0.498 | – | – | –
308.15 K, m1 = 0.06382 | 0.507 | – | – | –
308.15 K, m1 = 0.06396 | – | 996.274 | 1526.1 | –
308.15 K, m1 = 0.07 | – | – | – | 38.27
308.15 K, m1 = 0.07815 | – | 996.719 | 1526 | –
308.15 K, m1 = 0.09792 | – | – | – | 38.41
308.15 K, m1 = 0.122 | – | 998.067 | 1525.6 | –
308.15 K, m1 = 0.1694 | – | – | – | 38.44
308.15 K, m1 = 0.1726 | – | 999.588 | 1525.1 | –
308.15 K, m1 = 0.2247 | – | 1001.11 | 1524.7 | –
308.15 K, m1 = 0.2268 | – | – | – | 38.2
308.15 K, m1 = 0.2539 | – | 1001.95 | 1524.4 | –
